This note sets out measurements from US4968671A, “Therapeutic agents for ischemic heart diseases” (Yamanouchi Pharmaceutical Co., Ltd., priority 1987, dated 1990).

In one series the test system is dogs. As to the kind of experiment: inhibitory action on ventricular extra systole on reperfusion of the occluded coronary artery in anesthetized open-chest dogs. The class given is in vivo. The following applies: 60 min coronary occlusion then 20 min reperfusion, 300 mg/kg i.v. + 10 mg/kg/min i.v., mean ± standard deviation, P < 0.05 vs control group (35.9 ± 10.2). Here is the method: The inhibitory action of glutathione monoisopropyl ester on ventricular extra systole occurred when the occluded coronary artery was reperfused in dogs was tested with the following method.
Measurement was carried out by partially modifying Gibsons' method (J. Cardiovasc. Pharmacol., 5, 517-524, 1983). Dogs (Mongrel, female and male, 9-18 kg) were anesthetized with pentobarbital, the chest was opened under artificial respiration. And then the left coronary artery anterior descending segmental branch was occluded for 60 minutes. Thereafter, a reperfusion was carried out for 20 minutes and then blood pressure and heart rate as well as the heart surface electrocardiogram were measured.
The glutathione monoisopropyl ester (GE) was intravenously administered in a single dose of 300 mg/kg 30 minutes after the coronary artery occlusion and continuous injection was carried out in the amount of 10 mg/kg/min, i.v., until the completion of this test from 40 minutes after the coronary artery occlusion. The effect of an agent was evaluated by the number of the ventricular extra systole for a minute, which had been occured during the time period of reperfusion.

A further series concerns mice. As to the kind of experiment: acute toxicity (LD50), intraperitoneal injection to mice. The class given is in vivo.

On to `CC(C)OC(=O)CNC(=O)[C@H](CS)NC(=O)CC[C@H](N)C(=O)O` [GE, isopropyl r-L-glutamyl-L-cysteinyl glycinate], for which the “Number of ventricular extra systole” value in the series with dogs was determined as 10.0 ± 5.6 counts/min. Further, the “acute toxicity (LD50)” value in the series on mice is “approximately 5.3 g/kg”.
